According to patent publication US20130165368A1, “ANTIMICROBIAL COMPOUNDS” (priority 2010, published 2013):
Values after ≈ are worked out from the molar mass of the structure shown. Like-named read-outs stand apart in the source and are kept apart here. Blank lines part the entries; values can stand above or below the compound they belong to.

Experiments:
Type in all cases: cell-based
Escherichia coli = test: MIC agar dilution, micro-organism 1 (10418); conditions: Escherichia coli 10418
Method: (§1) Throughout the period of testing the microbial strains were subcultured and incubated for 18-20 hours at 37° C. on a weekly basis. Horse blood agar plates were used to sustain the micro-organisms both prior to and throughout testing. The alkoxylated alkanols listed in Table II below were obtained (these are obtainable from Sigma-Aldrich Company Ltd, Dorset, England), each having a GC purity of at least 97%.
(§2) Molar equivalent concentrations were used to allow comparison between compounds of differing molecular mass. Due to weighing difficulties, any compound in solid form was melted in a water bath prior to dilution. To make ten-times strength concentrations, which takes into account agar dilution, 0.0352 mmol of each compound was weighed into plastic universal bottles and 4 mL of sterile distilled water (SDW) was added. To produce a homogenous emulsion the universals were vortexed; once achieved the emulsions were serial diluted by adding 2 mL to 2 mL of SDW.
(§3) Myristyl alcohol and lauryl alcohol were re-weighed and dissolved in 25 μL of the polar solvent 1-methyl-2-pyrrolidone (M6762; Sigma-Aldrich) in sterile glass universals due to an inability to achieve an even suspension. To maintain an even emulsion in the presence of SDW 37.5 μL of the non-ionic detergent Tween 20 (P1379, Sigma-Aldrich) was also added. 3.9375 mL of SDW was added to these, to create a 4 mL volume; they were vortexed and diluted as before.
(§4) For every 100 mL of Isosensitest agar (IST) (CM0471; Oxoid, Basingstoke, England), 3.1 g of the IST powder was added to 100 mL SDW (as per manufacturer's instructions) and sterilised for 15 minutes at 121° C. Once sterilised, the molten agar was cooled to 50° C. in a water-bath. Subsequently 4.8 g of CCEY powder (BC2160; Bioconnections, Wetherby, England), also known as Brazier's medium, was added to 100 mL SDW for every 100 mL of agar needed. This was then sterilised for 15 minutes at 121° C. Once sterilised the molten agar was cooled to 50° C. in a water-bath and 4 mL of egg-yolk emulsion (S2073; TCS Biosciences Ltd, Buckingham, United Kingdom) and 1 mL of lysed defibrinated horse blood (HB035; TCS Biosciences Ltd, Buckingham, United Kingdom) were also added for every 100 mL needed. Horse blood lysis is achieved by dilution to half concentration with SDW; when fully lysed the mixture will turn dark red in colour.
(§5) 18 mL agar was added to each universal and then poured into sterile Petri dishes. This step creates a 1/10 dilution resulting in agar plates of the required strength. Control plates for each set of strains were created by adding 18 mL of agar to 2 mL of SDW.
(§6) Suspensions of each bacterial species were prepared with a density equal to that of a 0.5 McFarland standard using a densitometer. All suspensions were made using sterile distilled water and fresh 18-20 hour cultures. As a 0.5 McFarland standard contains 1.5×10^8 CFU/mL and the multipoint inoculators applies 1 μL spots of liquid, each bacterial suspension was diluted 1/15 (20 μL suspension to 280 μL sterile distilled water).
(§7) Bacterial suspensions were prepared from fresh 18-24 hour cultures as previously described. 1 μL of each strain was inoculated onto all 100 agar plates containing a different chemical concentration and the 2 control plates. This was done using a multipoint inoculator which inoculates 20 strains per plate. All plates were incubated for 22 hours at 37° C. in aerobic conditions.
(§8) Each plate was examined for bacterial growth after 22 and 48 hours, with each being incubated in between examinations. A positive result was recorded as growth of ≧10 colonies. A negative result was recorded as growth of <10 colonies as this is equivalent to 99.9% inhibition. The lowest concentration of chemical that inhibited growth was recorded as the MIC. The results are recorded in Table IV below, where the numbers are quoted in mmol/L. […]

Klebsiella pneumoniae = test: MIC agar dilution, micro-organism 2 (9528); conditions: Klebsiella pneumoniae 9528
Method: as §1, §2, §3, §4, §5, §6, §7
(§9) Each plate was examined for bacterial growth after 22 and 48 hours, with each being incubated in between examinations. A positive result was recorded as growth of ≧10 colonies. A negative result was recorded as growth of <10 colonies as this is equivalent to 99.9% inhibition. The lowest concentration of chemical that inhibited growth was recorded as the MIC. The results are recorded in Table IV below, where the numbers are quoted in mmol/L.
(§10) Further experiments have also been conducted to determine the MIC of a number of other compositions as follows. […]

Providencia rettgeri = test: MIC agar dilution, micro-organism 3 (7475); conditions: Providencia rettgeri 7475
Method: as §1, §2, §3, §4, §5, §6, §7, §8

Enterobacter cloacae = test: MIC agar dilution, micro-organism 4 (11936); conditions: Enterobacter cloacae 11936
Method: as §1, §2, §3, §4, §5, §6, §7, §9, §10

Serratia marcescens = test: MIC agar dilution, micro-organism 5 (10211); conditions: Serratia marcescens 10211
Method: as §1, §2, §3, §4, §5, §6, §7, §9, §10

Salmonella typhimurium = test: MIC agar dilution, micro-organism 6 (74); conditions: Salmonella typhimurium 74
Method: as §1, §2, §3, §4, §5, §6, §7, §9, §10

Pseudomonas aeruginosa = test: MIC agar dilution, micro-organism 7 (10662); conditions: Pseudomonas aeruginosa 10662
Method: as §1, §2, §3, §4, §5, §6, §7, §9, §10

Yersinia enterocolitica = test: MIC agar dilution, micro-organism 8 (11176); conditions: Yersinia enterocolitica 11176
Method: as §1, §2, §3, §4, §5, §6, §7, §9, §10

Burkholderia cepacia = test: MIC agar dilution, micro-organism 9 (1222); conditions: Burkholderia cepacia 1222
Method: as §1, §2, §3, §4, §5, §6, §7, §9, §10

Acinetobacter baumannii = test: MIC agar dilution, micro-organism 10 (19606); conditions: Acinetobacter baumannii 19606
Method: as §1, §2, §3, §4, §5, §6, §7, §9, §10

Steptococcus pyogenes = test: MIC agar dilution, micro-organism 11 (8306); conditions: Steptococcus pyogenes 8306
Method: as §1, §2, §3, §4, §5, §6, §7, §8

[1] = test system: Staphylococcus aureus (MRSA); test: MIC agar dilution, micro-organism 12 (11939); conditions: Staphylococcus aureus (MRSA) 11939
Method: as §1, §2, §3, §4, §5, §6, §7, §8

Staphylococcus aureus = test: MIC agar dilution, micro-organism 13 (6571); conditions: Staphylococcus aureus 6571
Method: as §1, §2, §3, §4, §5, §6, §7, §8

[2] = test system: Staphylococcus epidermidis; test: MIC agar dilution, micro-organism 14 (11047); conditions: Staphylococcus epidermidis 11047
Method: as §1, §2, §3, §4, §5, §6, §7, §8

Listeria monocytogenes = test: MIC agar dilution, micro-organism 15 (11994); conditions: Listeria monocytogenes 11994
Method: as §1, §2, §3, §4, §5, §6, §7, §8

Enterococcus faecium = test: MIC agar dilution, micro-organism 16 (7171); conditions: Enterococcus faecium 7171
Method: as §1, §2, §3, §4, §5, §6, §7, §8

Enterococcus faecalis = test: MIC agar dilution, micro-organism 17 (775); conditions: Enterococcus faecalis 775
Method: as §1, §2, §3, §4, §5, §6, §7, §8

Bacillus subtilis = test: MIC agar dilution, micro-organism 18 (9372); conditions: Bacillus subtilis 9372
Method: as §1, §2, §3, §4, §5, §6, §7, §8

Candida albicans = test: MIC agar dilution, micro-organism 19 (90028); conditions: Candida albicans 90028
Method: as §1, §2, §3, §4, §5, §6, §7, §8

Candida glabrata = test: MIC agar dilution, micro-organism 20 (3943); conditions: Candida glabrata 3943
Method: as §1, §2, §3, §4, §5, §6, §7, §8

[3] = Salmonella enterica, 48 hrs, read-out: MIC
[4] = Staphylococcus aureus, MRSA, 48 h, 48 hrs, read-out: MIC
[5] = Staphylococcus aureus, 48 h, 48 hrs, read-out: MIC
[6] = Nakaseomyces glabratus, 48 h, 48 hrs, read-out: MIC

- MIC (Escherichia coli; 22 hrs): >880 µM
- MIC (Escherichia coli; 48 hrs): >880 µM
- MIC (Klebsiella pneumoniae; 22 hrs): >880 µM
- MIC (Klebsiella pneumoniae; 48 hrs): >880 µM
- MIC (Providencia rettgeri; 22 hrs): >880 µM
- MIC (Providencia rettgeri; 48 hrs): >880 µM
- MIC (Enterobacter cloacae; 22 hrs): >880 µM
- MIC (Enterobacter cloacae; 48 hrs): >880 µM
- MIC (Serratia marcescens; 22 hrs): >880 µM
- MIC (Serratia marcescens; 48 hrs): >880 µM
- MIC (Salmonella typhimurium; 22 hrs): >880 µM
- MIC (Salmonella typhimurium; 48 hrs): >880 µM
- MIC (Pseudomonas aeruginosa; 22 hrs): >880 µM
- MIC (Pseudomonas aeruginosa; 48 hrs): >880 µM
- MIC (Yersinia enterocolitica; 22 hrs): >880 µM
- MIC (Yersinia enterocolitica; 48 hrs): >880 µM
- MIC (Burkholderia cepacia; 22 hrs): >880 µM
- MIC (Burkholderia cepacia; 48 hrs): >880 µM
- MIC (Acinetobacter baumannii; 22 hrs): >880 µM
- MIC (Acinetobacter baumannii; 48 hrs): >880 µM
- MIC (Steptococcus pyogenes; 22 hrs): >880 µM
- MIC (Steptococcus pyogenes; 48 hrs): >880 µM
- MIC ([1]; 22 hrs): >880 µM
- MIC ([1]; 48 hrs): >880 µM
- MIC (Staphylococcus aureus; 22 hrs): >880 µM
- MIC (Staphylococcus aureus; 48 hrs): >880 µM
- MIC ([2]; 22 hrs): >880 µM
- MIC ([2]; 48 hrs): >880 µM
- MIC (Listeria monocytogenes; 22 hrs): >880 µM
- MIC (Listeria monocytogenes; 48 hrs): >880 µM
- MIC (Enterococcus faecium; 22 hrs): >880 µM
- MIC (Enterococcus faecium; 48 hrs): >880 µM
- MIC (Enterococcus faecalis; 22 hrs): >880 µM
- MIC (Enterococcus faecalis; 48 hrs): >880 µM
- MIC (Bacillus subtilis; 22 hrs): >880 µM
- MIC (Bacillus subtilis; 48 hrs): >880 µM
- MIC (Candida albicans; 22 hrs): >880 µM
- MIC (Candida albicans; 48 hrs): >880 µM
- MIC (Candida glabrata; 22 hrs): 880 µM (≈ 252 µg/mL)
- MIC (Candida glabrata; 48 hrs): 880 µM (≈ 252 µg/mL)
Compound: CCCCCCCCCCCCCCCCOCCO [C16E1, ceteth-1]

- MIC (Escherichia coli; 48 hrs, read-out: MIC): > 880 µM
- MIC (Klebsiella pneumoniae; 48 hrs, read-out: MIC): > 880 µM
- MIC (Providencia rettgeri; 48 hrs, read-out: MIC): > 880 µM
- MIC (Enterobacter cloacae; 48 hrs, read-out: MIC): > 880 µM
- MIC (Serratia marcescens; 48 hrs, read-out: MIC): > 880 µM
- MIC (Salmonella typhimurium; [3]): > 880 µM
- MIC (Pseudomonas aeruginosa; 48 hrs, read-out: MIC): > 880 µM
- MIC (Yersinia enterocolitica; 48 hrs, read-out: MIC): > 880 µM
- MIC (Burkholderia cepacia; 48 hrs, read-out: MIC): > 880 µM
- MIC (Acinetobacter baumannii; 48 hrs, read-out: MIC): > 880 µM
- MIC (Steptococcus pyogenes; 48 h, 48 hrs, read-out: MIC): > 880 µM
- MIC [1, 4]: > 880 µM
- MIC (Staphylococcus aureus; [5]): > 880 µM
- MIC ([2]; 48 hrs, read-out: MIC): > 880 µM
- MIC (Listeria monocytogenes; 48 hrs, read-out: MIC): > 880 µM
- MIC (Enterococcus faecium; 48 hrs, read-out: MIC): > 880 µM
- MIC (Enterococcus faecalis; 48 hrs, read-out: MIC): > 880 µM
- MIC (Bacillus subtilis; 48 hrs, read-out: MIC): > 880 µM
- MIC (Candida albicans; 48 hrs, read-out: MIC): > 880 µM
- MIC (Candida glabrata; [6]): > 880 µM
Compound: OCCCCCCCCCCCCO [D, 1,12-dodecanediol, reference compound]

- MIC (Escherichia coli; 48 hrs, read-out: MIC): > 880 µM
- MIC (Klebsiella pneumoniae; 48 hrs, read-out: MIC): 880 µM (≈ 333 µg/mL)
- MIC (Providencia rettgeri; 48 hrs, read-out: MIC): > 880 µM
- MIC (Enterobacter cloacae; 48 hrs, read-out: MIC): > 880 µM
- MIC (Serratia marcescens; 48 hrs, read-out: MIC): > 880 µM
- MIC (Salmonella typhimurium; [3]): > 880 µM
- MIC (Pseudomonas aeruginosa; 48 hrs, read-out: MIC): > 880 µM
- MIC (Yersinia enterocolitica; 48 hrs, read-out: MIC): > 880 µM
- MIC (Burkholderia cepacia; 48 hrs, read-out: MIC): > 880 µM
- MIC (Acinetobacter baumannii; 48 hrs, read-out: MIC): > 880 µM
- MIC (Steptococcus pyogenes; 48 h, 48 hrs, read-out: MIC): 880 µM (≈ 333 µg/mL)
- MIC [1, 4]: > 880 µM
- MIC (Staphylococcus aureus; [5]): > 880 µM
- MIC ([2]; 48 hrs, read-out: MIC): > 880 µM
- MIC (Listeria monocytogenes; 48 hrs, read-out: MIC): > 880 µM
- MIC (Enterococcus faecium; 48 hrs, read-out: MIC): > 880 µM
- MIC (Enterococcus faecalis; 48 hrs, read-out: MIC): > 880 µM
- MIC (Bacillus subtilis; 48 hrs, read-out: MIC): > 880 µM
- MIC (Candida albicans; 48 hrs, read-out: MIC): > 880 µM
- MIC (Candida glabrata; [6]): > 880 µM
Compound: OCCOCCOCCCCCCCCCCCCOCCOCCO [DEG2, 3,6,19,22-tetraoxatetracosane-1,24-diol]
